Source: patent publication US20150306068A1, “COMPOUNDS AND RELATED METHODS FOR TREATMENT OF NEURODEGENERATIVE DISEASES” (priority 2013, published 2015)

Experiments:
[1] = system: wild-type human tau; assay: Western blot of tau levels in HeLa cells transfected with wild-type human tau; format: cell-based; conditions: treated 24 hours; for phosphorylated (pS199-202) wild type tau level: HeLa cells transfected with wild-type human tau, various doses, pS199-202 antibody; for C-terminal tau level (Tau 46 antibody) / N-terminal tau level (Tau H-150 antibody): human tau transfected HeLa cells, wild type and P301L not distinguished
Protocol: (§1) Compounds effects on tau activity/level were determine by a previously described method (Jinwal et al J. Neurosci. 2009 Sep. 30; 29(39):12079-88). In brief, human tau transfected HeLa Cells were treated with Compounds for 24 hours. Cells were harvested by using MPER reagent containing protease inhibitor and phosphatase inhibitor. Samples were analyzed by western blot. pS199-202 antibody was used to detect phospho tau level. Total tau levels were detected by tau H-150 &/or tau 46 antibodies.
(§2) HeLa cells were transfected with wild-type human tau (A) and mutant P301L human tau (B) (FIG. 1). After 24 hours, cells were treated with either palmadorin M or beauvericin for 24 hours.

[2] = system: mutant P301L human tau; assay: Western blot of tau levels in HeLa cells transfected with mutant P301L human tau; format: cell-based; conditions: treated 24 hours, various doses, pS199-202 antibody
Protocol: as §1, §2

| Structure (SMILES) | phosphorylated (pS199-202) wild type tau level [1] | C-terminal tau level (Tau 46 antibody) [1] | N-terminal tau level (Tau H-150 antibody) [1] | phosphorylated (pS199-202) mutant P301L tau level [2] |
| --- | --- | --- | --- | --- |
| CC(C)[C@H]1OC(=O)[C@H](Cc2ccccc2)N(C)C(=O)[C@@H](C(C)C)OC(=O)[C@H](Cc2ccccc2)N(C)C(=O)[C@@H](C(C)C)OC(=O)[C@H](Cc2ccccc2)N(C)C1=O [beauvericin] | potent reduction | moderate change in tau level | increase in tau level | potent reduction |
| C=C1CC[C@@H]2C(C)(C)CCC[C@]2(C)[C@@H]1CC/C(C)=C/C(=O)OC(CO)CO [palmadorin M] | potent reduction | moderate change in tau level | increase in tau level | potent reduction |
